In assay [1] the target is T1, glucocorticoid receptor (GR) (Homo sapiens, UniProt P04150).
T1 construct: made in house; host or cells: Sf9 cells infected with recombinant baculovirus (cytosol preparation)
T1 sequence (P04150 1-777): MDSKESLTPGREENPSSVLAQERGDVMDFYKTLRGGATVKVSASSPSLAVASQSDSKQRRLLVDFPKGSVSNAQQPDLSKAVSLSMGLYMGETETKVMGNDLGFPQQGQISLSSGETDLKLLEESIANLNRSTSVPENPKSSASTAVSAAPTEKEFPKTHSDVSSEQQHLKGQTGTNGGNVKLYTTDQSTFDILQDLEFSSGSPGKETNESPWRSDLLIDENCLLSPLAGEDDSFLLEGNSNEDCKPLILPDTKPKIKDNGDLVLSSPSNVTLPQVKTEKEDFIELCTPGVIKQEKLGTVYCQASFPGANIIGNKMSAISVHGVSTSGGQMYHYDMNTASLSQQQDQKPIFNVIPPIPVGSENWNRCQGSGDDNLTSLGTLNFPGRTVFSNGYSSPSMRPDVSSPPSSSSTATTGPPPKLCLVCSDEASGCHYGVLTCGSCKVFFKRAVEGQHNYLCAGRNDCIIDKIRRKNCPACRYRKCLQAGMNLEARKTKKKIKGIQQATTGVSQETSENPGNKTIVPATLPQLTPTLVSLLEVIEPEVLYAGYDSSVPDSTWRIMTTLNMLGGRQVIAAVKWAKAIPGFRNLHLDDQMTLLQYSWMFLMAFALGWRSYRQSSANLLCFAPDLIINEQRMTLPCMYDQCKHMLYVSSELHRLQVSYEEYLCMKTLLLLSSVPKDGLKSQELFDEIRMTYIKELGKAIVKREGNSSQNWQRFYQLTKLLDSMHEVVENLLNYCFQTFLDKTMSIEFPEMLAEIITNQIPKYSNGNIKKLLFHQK
Briefly: Glucocorticoid receptor binding with recombinantly prepared receptor, [3H]-dexamethasone as reference. Conditions: cytosol preparations of Sf9 cells infected with recombinant baculoviruses coding for GR. The source says: (§1) The binding of the substances to the glucocorticoid receptor (GR) and further steroid hormone receptors (mineral corticoid receptor (MR), progesterone receptor (PR) and androgen receptor (AR)) is examined with the aid of recombinantly prepared receptors. Cytosol preparations of Sf9 cells which had been infected with recombinant baculoviruses which code for the GR are employed for the binding studies. Compared with the reference substance [^3H]-dexamethasdne, the substances show a high affinity for the GR. Thus, an IC50(GR)=20 nM and IC50(PR) >1 μM was measured for the compound of example 1 and an IC50(GR)=30 nM and IC50(PR) >1 μM was measured for the compound of example 2.

Assay [2] deals with T2, progesterone receptor (PR) (Homo sapiens, UniProt P06401).
T2 construct: made in house
T2 sequence (P06401 1-933): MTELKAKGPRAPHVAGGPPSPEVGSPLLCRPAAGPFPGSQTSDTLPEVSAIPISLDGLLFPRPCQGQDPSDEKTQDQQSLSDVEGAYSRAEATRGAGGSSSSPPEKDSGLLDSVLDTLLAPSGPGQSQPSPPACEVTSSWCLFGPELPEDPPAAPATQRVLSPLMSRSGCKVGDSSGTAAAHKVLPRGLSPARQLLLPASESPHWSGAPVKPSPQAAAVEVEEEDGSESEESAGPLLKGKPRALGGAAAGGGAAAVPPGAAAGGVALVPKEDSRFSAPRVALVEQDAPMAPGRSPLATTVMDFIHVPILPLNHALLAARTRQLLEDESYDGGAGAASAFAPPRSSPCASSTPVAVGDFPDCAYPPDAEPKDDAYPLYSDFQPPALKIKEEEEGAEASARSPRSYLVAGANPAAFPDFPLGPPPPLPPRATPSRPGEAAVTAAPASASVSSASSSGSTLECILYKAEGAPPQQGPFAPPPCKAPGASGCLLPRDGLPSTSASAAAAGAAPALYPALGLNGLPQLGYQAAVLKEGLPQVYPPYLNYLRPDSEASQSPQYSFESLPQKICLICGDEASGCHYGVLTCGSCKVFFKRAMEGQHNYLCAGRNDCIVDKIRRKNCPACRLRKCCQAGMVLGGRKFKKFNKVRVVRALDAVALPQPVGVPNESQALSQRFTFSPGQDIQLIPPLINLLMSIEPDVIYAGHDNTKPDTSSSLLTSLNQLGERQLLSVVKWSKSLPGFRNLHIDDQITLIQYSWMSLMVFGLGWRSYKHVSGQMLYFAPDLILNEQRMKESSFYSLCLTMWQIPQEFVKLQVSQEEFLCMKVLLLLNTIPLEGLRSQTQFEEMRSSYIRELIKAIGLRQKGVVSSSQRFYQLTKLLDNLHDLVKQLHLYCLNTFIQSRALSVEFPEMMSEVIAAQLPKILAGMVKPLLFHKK
The assay is described as follows: Progesterone receptor binding with recombinantly prepared receptor.
Excerpt: as §1

pIC50: −log10 of the molar value.

Regarding `CC1(CC(O)(CNc2cccc3[nH]c(=O)ccc23)C(F)(F)F)CCOc2ccccc21` (single isomer, unassigned) [Example 2, 5-{[2-Hydroxy-3-(4-methylchroman-4-yl)-2-trifluoro-methylpropyl]amino}quinolin-2{1H}-one], the pIC50 in assay [1] was 7.52; in assay [2], below 6.00.
On the same counts, the results for `O=c1ccc2c(NCC(O)(CC3CCOc4ccccc43)C(F)(F)F)cccc2[nH]1` (stereo not shown) [Example 1] are 7.70 and below 6.00.

For orientation: pIC50 means −log10 of the IC50, conventionally taken in molar units.

For the origin of these results see patent publication US20070129358A1, “Sbstituted chroman derivatives, processes for their preparation and their use as antiinflammatory agents” (priority 2005, published 2007).
